Measured values from PubChem BioAssay AID1963451 (Molecular Pharmacology Branch, DTP, NCI, 2024).
Values joined by “and” are separate entries in the source; they are usually repeats but may differ in a detail not shown here. Equal values may be shown once.

Tested on: 521955-158-R6-J3-PDC complex spheroid growth, % test/control
Test: Anticancer human tumor 521955-158-R6-J3-PDC patient-derived pancreatic carcinoma cell line growth inhibition [Asc]
Conditions: for viability, T/C: stronger effect = lower value
How it was run: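 Spheroid model: tumor line + HUVEC + hMSC. Single agents and combinations; top conc. at/near clinical Cmax (10 microM if undetermined), half-log dilutions. DMSO stocks at 800-fold test concentration.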

[1] = curve of first compound, second compound 0.0316 µM
[2] = curve of first compound, second compound 0.1 µM
[3] = curve of first compound, second compound 0.316 µM
[4] = curve of first compound, second compound 1 µM
[5] = second compound 0.0316 µM, first compound 0.00316 µM
[6] = second compound 0.0316 µM, first compound 0.01 µM
[7] = second compound 0.0316 µM, first compound 0.0316 µM
[8] = second compound 0.0316 µM, first compound 0.1 µM
[9] = second compound 0.1 µM, first compound 0.00316 µM
[10] = second compound 0.1 µM, first compound 0.01 µM
[11] = second compound 0.1 µM, first compound 0.0316 µM
[12] = second compound 0.1 µM, first compound 0.1 µM
[13] = second compound 0.316 µM, first compound 0.00316 µM
[14] = second compound 0.316 µM, first compound 0.01 µM
[15] = second compound 0.316 µM, first compound 0.0316 µM
[16] = second compound 0.316 µM, first compound 0.1 µM
[17] = second compound 1 µM, first compound 0.00316 µM
[18] = second compound 1 µM, first compound 0.01 µM
[19] = second compound 1 µM, first compound 0.0316 µM
[20] = second compound 1 µM, first compound 0.1 µM
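Note: spheroids exposed to compounds for 7 days.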
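Throughout, for viability, T/C: 100% = DMSO vehicle control wells.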

CCN1CCN(Cc2ccc(Nc3ncc(F)c(-c4cc(F)c5nc(C)n(C(C)C)c5c4)n3)nc2)CC1 + Cc1c(S(C)(=O)=O)c(-c2cc(F)cc(N3CCN(c4ccc(NS(=O)(=O)c5ccc(NC(CCN6CCC(C(=O)OCCCP(=O)(O)O)CC6)CSc6ccccc6)c(S(=O)(=O)C(F)(F)F)c5)cc4)CC3)c2)c(-c2ccc(Cl)cc2)n1C(C)C was tested, and the IC50 [1] was > 1000 nM, the IC50 [2] was > 1000 nM and the IC50 [3] was < 3.16 nM. For the same compound, the IC50 [4] was < 3.16 nM, the IC50 (curve of first compound, second compound 3.16 µM) was < 3.16 nM and the IC50 (curve of first compound, second compound 10 µM) was < 3.16 nM. For the same compound, the viability, T/C [5] was 96.2%, the viability, T/C [6] was 81% and the viability, T/C [7] was 73.6%. For the same compound, the viability, T/C [8] was 71.9%, the viability, T/C (second compound 0.0316 µM, first compound 0.316 µM) was 67.6% and the viability, T/C (second compound 0.0316 µM, first compound 1 µM) was 84.4%. It also gave a viability, T/C [9] of 72.3%, a viability, T/C [10] of 57.5% and a viability, T/C [11] of 62%. It also gave a viability, T/C [12] of 63.1%, a viability, T/C (second compound 0.1 µM, first compound 0.316 µM) of 82.1% and a viability, T/C (second compound 0.1 µM, first compound 1 µM) of 73.5%. It also gave a viability, T/C [13] of 53%, a viability, T/C [14] of 49% and a viability, T/C [15] of 43.9%. For the same compound, the viability, T/C [16] was 53.6%, the viability, T/C (second compound 0.316 µM, first compound 0.316 µM) was 49.4% and the viability, T/C (second compound 0.316 µM, first compound 1 µM) was 53.9%. The viability, T/C [17] was 35.6%, the viability, T/C [18] was 39.1% and the viability, T/C [19] was 29.4%. For the same compound, the viability, T/C [20] was 37.3%, the viability, T/C (second compound 1 µM, first compound 0.316 µM) was 34.2% and the viability, T/C (second compound 1 µM, first compound 1 µM) was 41.1%. For the same compound, the viability, T/C (second compound 3.16 µM, first compound 0.00316 µM) was 21.4%, the viability, T/C (second compound 3.16 µM, first compound 0.01 µM) was 18.7% and the viability, T/C (second compound 3.16 µM, first compound 0.0316 µM) was 18.4%. The viability, T/C (second compound 3.16 µM, first compound 0.1 µM) was 19.4%, the viability, T/C (second compound 3.16 µM, first compound 0.316 µM) was 24.2% and the viability, T/C (second compound 3.16 µM, first compound 1 µM) was 26.1%. For the same compound, the viability, T/C (second compound 10 µM, first compound 0.00316 µM) was 30.4%, the viability, T/C (second compound 10 µM, first compound 0.01 µM) was 16.3% and the viability, T/C (second compound 10 µM, first compound 0.0316 µM) was 15%. The viability, T/C (second compound 10 µM, first compound 0.1 µM) was 15.2%, the viability, T/C (second compound 10 µM, first compound 0.316 µM) was 26.6% and the viability, T/C (second compound 10 µM, first compound 1 µM) was 28.9%.
With Cn1ncnc1[C@H]1c2n[nH]c(=O)c3cc(F)cc(c23)N[C@@H]1c1ccc(F)cc1 the viability, T/C (compound 0.000316 µM) was 100% and 86% and 85.9%, the viability, T/C (compound 0.001 µM) was 117% and 105% and 93.7% and the viability, T/C (compound 0.00316 µM) was 108% and 97.1% and 83.8%. The viability, T/C (compound 0.01 µM) was 106% and 116% and 114%, the viability, T/C (compound 0.0316 µM) was 97.9% and 96.4% and 84.3% and the viability, T/C (compound 0.1 µM) was 95.5% and 85.7% and 96.4%. For the same compound, the IC50 (curve of compound) was > 100 nM.
For NC1CCC(NC2CC2c2ccccc2)CC1 (stereo unspecified) + CNC(C)C(=O)NC1CN(S(=O)(=O)c2cccc(S(=O)(=O)N3CCC4CCC(C(=O)NC(c5ccccc5)c5ccccc5)N4C(=O)C(NC(=O)C(C)NC)C3)c2)CCC2CCC(C(=O)NC(c3ccccc3)c3ccccc3)N2C1=O, the IC50 (curve of first compound, second compound 0.00316 µM) was > 100 nM, the IC50 (curve of first compound, second compound 0.01 µM) was > 100 nM and the IC50 [1] was > 100 nM. The IC50 [2] was > 100 nM, the IC50 [3] was > 100 nM and the IC50 [4] was > 100 nM. The viability, T/C (second compound 0.00316 µM, first compound 0.000316 µM) was 86%, the viability, T/C (second compound 0.00316 µM, first compound 0.001 µM) was 98.8% and the viability, T/C (second compound 0.00316 µM, first compound 0.00316 µM) was 95.5%. It also gave a viability, T/C (second compound 0.00316 µM, first compound 0.01 µM) of 92.6%, a viability, T/C (second compound 0.00316 µM, first compound 0.0316 µM) of 91.1% and a viability, T/C (second compound 0.00316 µM, first compound 0.1 µM) of 82.1%. For the same compound, the viability, T/C (second compound 0.01 µM, first compound 0.000316 µM) was 94%, the viability, T/C (second compound 0.01 µM, first compound 0.001 µM) was 85.2% and the viability, T/C (second compound 0.01 µM, first compound 0.00316 µM) was 77.6%. It also gave a viability, T/C (second compound 0.01 µM, first compound 0.01 µM) of 93%, a viability, T/C (second compound 0.01 µM, first compound 0.0316 µM) of 91.4% and a viability, T/C (second compound 0.01 µM, first compound 0.1 µM) of 82.3%. For the same compound, the viability, T/C (second compound 0.0316 µM, first compound 0.000316 µM) was 98.1%, the viability, T/C (second compound 0.0316 µM, first compound 0.001 µM) was 93.4% and the viability, T/C [5] was 80%. The viability, T/C [6] was 93.1%, the viability, T/C [7] was 87.8% and the viability, T/C [8] was 88.8%. For the same compound, the viability, T/C (second compound 0.1 µM, first compound 0.000316 µM) was 91.4%, the viability, T/C (second compound 0.1 µM, first compound 0.001 µM) was 80.8% and the viability, T/C [9] was 68.5%. For the same compound, the viability, T/C [10] was 86.1%, the viability, T/C [11] was 89.6% and the viability, T/C [12] was 66.3%. For the same compound, the viability, T/C (second compound 0.316 µM, first compound 0.000316 µM) was 83.8%, the viability, T/C (second compound 0.316 µM, first compound 0.001 µM) was 89.7% and the viability, T/C [13] was 84.4%. It also gave a viability, T/C [14] of 89%, a viability, T/C [15] of 71% and a viability, T/C [16] of 79.7%. The viability, T/C (second compound 1 µM, first compound 0.000316 µM) was 90.1%, the viability, T/C (second compound 1 µM, first compound 0.001 µM) was 77.8% and the viability, T/C [17] was 76.9%. The viability, T/C [18] was 96.5%, the viability, T/C [19] was 92.2% and the viability, T/C [20] was 83.8%.
